The values below are quoted from earlier work in US20070015720A1, “Modulation of endogenous AICAR levels for the treatment of diabetes and obesity” (CytRx Corporation, priority 2005, published 2007).

For data set [1] the following is noted: mice, murine pouch model of inflammation.
Data set [2] relates to obese Zucker (fa/fa) rats. The conditions noted are these: long term treatment, high doses.
The test system of data set [3] is 3T3L1 adipocytes.
Data set [4] has as its system adipocytes.
For data set [5] the following is noted: low dose, psoriasis patients, day of dosing.

Consider `O=C(O)c1cc(/N=N/c2ccc(S(=O)(=O)Nc3ccccn3)cc2)ccc1O` [sulfasalazine], for which the “increase of AICAR-monophosphate in splenocytes” value in data set [1] is recorded as “three-fold”.

Take `NC(=O)c1ncn([C@@H]2O[C@H](CO)[C@@H](O)[C@H]2O)c1N` [AICAR, 5-aminoimidazole-4-carboxamide ribonucleoside]: in data set [2], the “fasting concentrations of glucose and insulin” value was “decrease”; the “plasma triglyceride and free fatty acid levels” value was “reduce”; the systolic blood pressure entry is “decrease”. Besides, the “non-insulin stimulated glucose uptake” value in data set [3] is “increase”. The adipocyte differentiation entry in data set [4] was “inhibits adipocyte differentiation at an early stage”.

Turning to `CN(Cc1cnc2nc(N)nc(N)c2n1)c1ccc(C(=O)N[C@@H](CCC(=O)O)C(=O)O)cc1` [methotrexate], in data set [5], the “urinary excretion of aminoimidazole carboxamide (AICA)” value is recorded as “statistically significant increase”. Further, the “increase of AICAR-monophosphate in splenocytes” value in data set [1] is given as “three-fold”.
